{"source": "patent US20210145802A1", "about": "“THERAPY FOR OPHTHALMOLOGICAL CONDITIONS” (WREN THERAPEUTICS LIMITED, priority 2018, published 2021)", "key": {"NL5901 (α-syn worms)": {"test_system": "NL5901 (α-syn worms)", "experiment": "Automated motility assay, α-syn worms", "type": "in vivo, C. elegans", "settings": "same concentration range; compared with effect in Aβ worms", "description": "NL5901 (pkIs2386 [α-synuclein::YFP unc-119(+)]) (“α-syn worms”), in which α-synuclein fused to YFP relocates to inclusions, which are visible as early as day 2 after hatching and increase in number and size during the aging of the animals, up to late adulthood (day 17) (T. J. Van Ham et al., C. elegans model identifies genetic modifiers of α-synuclein inclusion formation during aging. PLoS Genetics. 4 (2008));\n(§1) Briefly, Netoglitazone stocks (5 mM in 100% DMSO) were used at an appropriate concentration to seed 9-cm NGM plates. Plates were then placed in a laminar flow hood at room temperature (22° C.) for up to 4 hours to dry. […]\n(§2) All C. elegans populations were cultured at 20° C. and developmentally synchronized from a 4 h egg-lay. At 64-72 h post-egg-lay (time zero), individuals were transferred to FUDR plates, and body movements were assessed over the times indicated. At different ages, the animals were washed off the plates with M9 buffer and spread over an OP-50 unseeded 9 cm plate, after which their movements were recorded at 20 fps using a recently developed microscopic procedure (M. Perni et al., Massively parallel C. elegans tracking provides multi-dimensional fingerprints for phenotypic discovery. J. Neurosci. Methods. 306, 57-67 (2018)) for 1 min. Up to 600 animals were counted in each experiment in duplicate unless stated otherwise. […]"}, "Aβ42 oligomers": {"biological_target": "T1, Aβ42 oligomers (Homo sapiens, UniProt P05067)", "T1 construct": "[…]; made in house; host or cells: E. coli BL21 Gold (DE3)", "T1 sequence (P05067 671-713)": "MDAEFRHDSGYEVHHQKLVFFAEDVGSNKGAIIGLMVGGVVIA", "experiment": "ELISA with oligomer-specific antibody", "type": "biochemical", "settings": "5 μM Aβ42; 5-fold excess; at half-time of aggregation of Aβ42 alone", "description": "20 μl Aliquots were taken at the t50 (i.e. half-time) from aggregation reactions of 5 μM Aβ42 in the absence and in the presence of 5-fold excess of Netoglitazone. Samples were then immobilised on a 96-well Maxisorp ELISA plate (Nunc, Roskilde, Denmark) with no shaking for 1 h at room temperature. The plate was then washed three times with 20 mM Tris pH 7.4, 100 mM NaCl and incubated in 20 mM Tris pH 7.4, 100 mM NaCl, 5% BSA under constant shaking overnight at 4° C. The day after the plate was washed six times with 20 mM Tris pH 7.4, 100 mM NaCl and then incubated with 30 μl solutions of 5 μM oligomer-specific antibody under constant shaking either for 1 hour or overnight at room temperature. At the end of this incubation, the plate was washed six times with 20 mM Tris pH 7.4, 100 mM NaCl and incubated with 30 μl solutions of Rabbit polyclonal to 6× His Tag® HRP conjugated (Abcam, Cambridge, UK) at a dilution of 1:4000 in 20 mM Tris pH 7.4, 100 mM NaCl, 5% BSA under shaking for 1 hour at room temperature. […] Finally, the amount of bound oligomer-specific antibody was quantified by using 1-Step™ Ultra TMB-ELISA Substrate Solution (ThermoFisher Scientific, Waltham, Mass., United States), according to manufacturer instructions, and measuring the absorbance at 450 nm by means of a CLARIOstar plate reader (BMG Labtech, Aylesbury, UK)."}, "GMC101 (Aβ worms)": {"test_system": "GMC101 (Aβ worms)", "experiment": "NIAD-4 plaque staining in living Aβ worms", "type": "in vivo, C. elegans", "description": "Plaques staining was carried out as previously described (J. Habchi et al. (2016); M. Perni et al., A natural product inhibits the initiation of α-synuclein aggregation & suppresses its toxicity. Proc. Natl. Acad. Sci. U.S.A. 114, E1009-E1017 (2017)). Briefly, live transgenic animals were incubated with NIAD-4 over a range of concentrations and times, with 1 μM NIAD-4 (0.1% DMSO in M9 buffer) for 4 hours at room temperature. After staining, animals were allowed to recover on NGM plates for about 24 hours to allow destaining via normal metabolism. Stained animals were mounted on 2% agarose pads containing 40 mM NaN3 as anaesthetic on glass microscope slides for imaging. Images were captured with a Zeiss Axio Observer D1 fluorescence microscope (Carl Zeiss Microscopy GmbH) with a 20× objective and a 49004 ET-CY3/TRITC filter (Chroma Technology Corp). Fluorescence intensity was calculated using ImageJ software (National Institutes of Health) and then normalized as the corrected total cell fluorescence. Only the head region was considered because of the high background signal in the guts. All experiments were carried out in triplicate, and the data from one representative experiment are shown. Statistical significance was determined using t tests."}, "[1]": {"test_system": "CL2331 (Aβ3-42::GFPMuscular worms)", "experiment": "Automated motility assay, Aβ3-42::GFPMuscular worms", "type": "in vivo, C. elegans", "settings": "compared to untreated worms", "description": "CL2331; dvIs37 [myo-3p::GFP::A-Beta (3-42)+rol-6(su1006)] (Aβ3-42::GFPMuscular worms). Maintain at 16 C. Roller. Diffuse and aggregated GFP expression in body wall muscle. Low brood size. Sicker at higher temperatures. (C. D. Link et al., The β amyloid peptide can act as a modular aggregation domain. Neurobiol. Dis. 32, 420-425 (2008));\nas §1, §2"}}, "data": [{"smiles": "O=C1NC(=O)C(Cc2ccc3cc(OCc4ccccc4F)ccc3c2)S1", "note": "(centres unmarked) [Netoglitazone]", "values": [{"measurement": "effect on mobility of α-syn worms", "setting": "NL5901 (α-syn worms)", "value": "negligible"}, {"measurement": "Aβ42 oligomer concentration (ELISA)", "setting": "Aβ42 oligomers", "value": "significant reduction"}, {"measurement": "plaques load (NIAD-4 fluorescence)", "setting": "GMC101 (Aβ worms); 0.5 μM, treatment at L4, day 6 of adulthood", "value": "significantly decrease the plaques load"}, {"measurement": "plaques load after late administration", "setting": "GMC101 (Aβ worms); administered at D3 of adulthood, measured at D6", "value": "significant decrease of the plaques load"}, {"measurement": "motility of Aβ3-42::GFPMuscular worms", "setting": "[1]", "value": "significantly improves the motility"}]}]}
